Data published in patent publication US12295997B2, “Prostate neoantigens and their uses” (Janssen Biotech, Inc., priority 2020, dated 2025).

B1: VPFRELKNQRTAQGAPGIHHAASPVAANLCDPARHAQHTRIPCGAGQVRAGRGPEAGGGVLQPQRPAPEKPGCPCRRGQPRLHTVKMWRA (peptide, listed as Homo sapiens)
chain: VPFRELKNQRTAQGAPGIHHAASPVAANLCDPARHAQHTRIPCGAGQVRAGRGPEAGGGVLQPQRPAPEKPGCPCRRGQPRLHTVKMWRA
notes: CPNE7 alternative splicing
B2: VPFRELKNVSVLEGLRQGRLGGPCSCHCPRPSQARLTPVDVAGPFLCLGDPGLFPPVKSSI (peptide, listed as Homo sapiens)
chain: VPFRELKNVSVLEGLRQGRLGGPCSCHCPRPSQARLTPVDVAGPFLCLGDPGLFPPVKSSI
notes: CPNE7 alternative splicing
B3: CHLFLQPQVGTPPPHTASARAPSGPPHPHESCPAGRRPARAAQTCARRQHGLPGCEEAGTARVPSLHLHLHQAALGAGRGRGWGEACAQVPPSRG (peptide, listed as Homo sapiens)
chain: CHLFLQPQVGTPPPHTASARAPSGPPHPHESCPAGRRPARAAQTCARRQHGLPGCEEAGTARVPSLHLHLHQAALGAGRGRGWGEACAQVPPSRG
notes: RECQL4 alternative splicing

Test system: CD8+ and CD4+ T cells (autologous CD3+ Pan-T cells isolated from human normal PBMCs)
Experiment: Exogenous autologous normal donor restimulation assay (15-mer overlapping peptide pools on CD1c+ dendritic cells, TNFα/IFNγ flow cytometry)
Type: cell-based
Details: 15-mer overlapping peptide pool; for Max. Fold Change over background CD4+ TNFαINFγ double positive DP / Max. Fold Change over background CD8+ TNFαINFγ double positive DP / Max. Frequency of CD4+ TNFαINFγ DP / Max. Frequency of CD8+ TNFαINFγ DP: Table 28, additional neoantigens, highest across normal donors; for Maximum Fold Change Over Background CD4+ cells / Maximum Fold Change Over Background CD8+ cells / Maximum Frequency of TNFα/IFNγ Double Positive CD4+ T cells / Maximum Frequency of TNFα/IFNγ Double Positive CD8+ T cells: Table 25; for Maximum Fold Change Over Background CD4+ cells: TNFα+IFNγ+ CD4+ T cells; for Maximum Fold Change Over Background CD4+ cells / Maximum Fold Change Over Background CD8+ cells: highest fold change over negative control across normal donors; for Maximum Fold Change Over Background CD8+ cells: TNFα+IFNγ+ CD8+ T cells; for Maximum Frequency of TNFα/IFNγ Double Positive CD4+ T cells / Maximum Frequency of TNFα/IFNγ Double Positive CD8+ T cells: highest frequency across normal donors
Protocol: CD1c+ Dendritic Cells (DC) isolated from human normal PBMCs were thawed using media (IMDM (Gibco) supplemented with glutamine, HEPES, 5% human serum (Sigma), and 1× Pen-Strep). DC cells were resuspended in media supplemented with IL-4 (Peprotech, 80 ng/mL) and GM-CSF (Gibco, 80 ng/mL), plated in 6 well microplates, and rested overnight at 37° C. (5% CO2). The following day, DC cells were counted and plated in a 96 well round bottom microplate at a concentration of 30,000 viable cells per well. Lyophilized peptides (15-mer overlapping peptides) were solubilized in 100% DMSO and pooled by neoantigen to between 5 mg/mL and 20 mg/mL. Neoantigen peptides pools were added to DCs for a final concentration of […] and rested for 2 hours at 37° C. (5% CO2). CEF Peptide Pool “Plus” (Cellular Technologies, Ltd.) was utilized as a positive control and DMSO at the same final concentration as the experimental peptides was utilized as a negative control. After 2 hours, DC cells were irradiated with 50 gray of ionizing radiation. Autologous CD3+ Pan-T cells isolated from human normal PBMCs were thawed using media. Following irradiation, autologous Pan-T cells were added to the irradiated DCs at 300,000 viable cells per well. Human IL-15 (Peprotech) was added to all wells at final concentration of 10 ng/mL.
Plates were incubated at 37° C. (5% CO2) for a total of 12 days. Media was refreshed every 2-3 days with IL-15 (10 ng/mL final concentration) and IL-2 (R&D systems, 10 IU/mL final concentration). On day 11 cells were re-stimulated with identical experimental peptide pools or controls, at same concentration as peptide stimulation on Day 1. Protein Inhibitor Cocktail (eBioscience) was added to every well and plate was incubated overnight at 37° C. (5% CO2).
On day 12, cells were stained for intracellular flow cytometry analysis. The cells were washed with PBS and stained with Live/Dead Fixable Aqua Dead Cell stain (Thermo-Fisher). Following the live/dead stain, cells were blocked using Biotin-Free Fc Receptor Blocker (Accurate Chemical & Scientific Corp). Extracellular cellular flow panel (1 μL/antibody per well in 50 μL) consisted of CD3 PerCP-Cy5.5 (Biolegend), CD4 BV421 (Biolegend), and CD8 APC-Cy7 (Biolegend). After extracellular staining, cells were fixed using Foxp3/fTranscription Factor Staining Buffer Set (eBioscience) and stained for intracellular proteins (1:50 dilution) using TNFα FITC (R&D Systems) and IFNγ BV785 (Biolegend). Cells were washed and resuspended in stain buffer and analyzed using a BD Celesta flow cytometer.
Flow cytometry cell staining analysis was completed using FlowJo v10. Cells were gated on live, singlet, CD3+ cells. The CD8+ and CD4+ T cells were analyzed for TNFα/IFNγ expression and the frequency of double positive TNFα/IFNγ CD8+ and the frequency of double positive TNFα/IFNγ CD4+ T cells were recorded. Responses were assessed to be positive when the frequency of double positive TNFα/IFNγ CD8+ or TNFα/IFNγ CD4+ T cells due to stimulation with an experimental peptide pool was increased greater than or equal to 3-fold over the DMSO only negative control for that donor and at least 0.01%.
(§1) Overlapping 15-mer peptides were designed to span each neoantigen incorporated into NeoGAd20 and NeoMVA to assess their ability to activate T cells using the exogenous autologous normal donor restimulation assay described in Example 1 as pools using TNFα and IFNγ production by CD8^+ and CD4^+ T cells as a readout.
as §1, with “Immunogenicity of various additional identified neoantigens was assessed. Overlapping” for “Overlapping”, “similarly to what was done in Example 11” for “incorporated into NeoGAd20 and NeoMVA”

Row | Molecule | Max. Fold Change over background CD4+ TNFαINFγ double positive DP | Max. Fold Change over background CD8+ TNFαINFγ double positive DP | Max. Frequency of CD4+ TNFαINFγ DP | Max. Frequency of CD8+ TNFαINFγ DP | Maximum Fold Change Over Background CD4+ cells | Maximum Fold Change Over Background CD8+ cells | Maximum Frequency of TNFα/IFNγ Double Positive CD4+ T cells | Maximum Frequency of TNFα/IFNγ Double Positive CD8+ T cells
1 | P37 (MAGGVLRRLLCREPDRDGDKGASREETVVPLHIGDPVVLPGIGQCYSALF; listed as Homo sapiens) [Neoantigen P37] | 22.78 | 2.05 | 0.09 | 0.13 | – | – | – | –
2 | P97 (GYLRMQGLMAQRLLLR; listed as Homo sapiens) [Neoantigen P97] | 3.14 | 7.47 | 0.12 | 1.11 | – | – | – | –
3 | PEPRRLSPGEPRGRPRKGWGIWGLCGARVGPKAWR (listed as Homo sapiens) [AS42, SLC39A4 alternative splicing] | 24.58 | 4.65 | 0.59 | 0.69 | – | – | – | –
4 | PVPTATPGVRSVTSPQGLGLFLKFI (listed as Homo sapiens) [AS9, CACNA1D alternative splicing] | 4.18 | 3.81 | 0.16 | 0.12 | – | – | – | –
5 | QPDSFAALHSSLNELGE (listed as Homo sapiens) [Neoantigen M86, AR L702H] | – | – | – | – | 6.18 | 4.22 | 0.05 | 0.08
6 | QQLRIFCAAMASNEDFS (listed as Homo sapiens) [FUS11, MBTPS2->YY2 gene fusion] | 28.57 | 2.63 | 0.16 | 0.1 | – | – | – | –
7 | QWQHYHRSGEAAGTPLWRPTRN (listed as Homo sapiens) [AS19, NWD1 alternative splicing] | – | – | – | – | 2.59 | 5.87 | 0.1 | 0.63
8 | RLTQRLVQGWTPMENRWCGRRAGGQPASSSTRWTTCRAACLLTKWTAGRSQTSIG (listed as Homo sapiens) [AS49, PDF alternative splicing] | 184.87 | 8.67 | 0.14 | 0.65 | – | – | – | –
9 | RTALTHNQDFSIYRLCCKRGSLCHASQARSPAFPKPVRPLPAPITRITPQLGGQSDSSQPLLTTGRPQGWQDQALRHTQQASPASCATITIPIHSAALGDHSGDPGPAWDTCPPLPLTTLIPRAPPPYGDSTARSWPSRCGPLG [MS3] | – | – | – | – | 13.61 | 36.15 | 0.09 | 0.47
10 | TEISCCTLSSEENEYLPRPEWQLQ (listed as Homo sapiens) [FUS3, MSMB->NCOA4 gene fusion] | – | – | – | – | 2.75 | 3.94 | 0.033 | 0.063
11 | TEYNQKLQVNQFSESK (listed as Homo sapiens) [FUS2, ARHGEF38->ARHGEF38-IT1 gene fusion] | – | – | – | – | 2.14 | 3.13 | 0.03 | 0.05
12 | TGGKSTCSAPGPQSLPSTPFSTYPQWVILITEL (listed as Homo sapiens) [AS57, KLK3 alternative splicing] | – | – | – | – | 11.00 | 4.67 | 0.110 | 0.056
13 | TMPAILKLQKNCLLSL (listed as Homo sapiens) [MS8] | – | – | – | – | 15.60 | 4.44 | 0.40 | 0.14
14 | VAMMVPDRQVHYDFGL (listed as Homo sapiens) [AS3, DNAH8 alternative splicing] | – | – | – | – | 3.86 | 7.92 | 0.054 | 0.095
15 | VETLENANSFSSGIQPLLCSLIGLENPT (listed as Homo sapiens) [AS58, CREB3L1 alternative splicing] | 6.27 | 4.54 | 0.24 | 0.6 | – | – | – | –
16 | VLRFLDLKVRYLHS (listed as Homo sapiens) [AS15, LRRC45 alternative splicing] | – | – | – | – | 9.17 | 4.36 | 0.110 | 0.061
17 | VVGRRHETAPQPLLVPDRAGGEGGA (listed as Homo sapiens) [AS5, DHDH alternative splicing] | 8.71 | 2.13 | 0.1 | 0.16 | – | – | – | –
18 | WCPLDLRLGSTGCLTCRHHQTSHE (listed as Homo sapiens) [AS4, NCAPD3 alternative splicing] | 37.38 | 5.4 | 1.43 | 0.17 | – | – | – | –
19 | B1 | – | – | – | – | 2.98 | 5.11 | 0.03 | 0.07
20 | B2 | – | – | – | – | 5.67 | 28.75 | 0.040 | 0.460
21 | B3 | – | – | – | – | 7.51 | 19.47 | 0.04 | 0.74
